What was measured:
Assay type in all cases: cell-based, human
[1] = system: peripheral blood mono-lymphocytes (PBML); test: MMC/DEB-induced chromosomal breakage and radial formation in PHA-stimulated peripheral blood lymphocytes;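 further: 40 ng/mL MMC and 200 ng/mL DEB for 48 hours at 37 °C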
Description: Peripheral blood was obtained from all subjects.
(§1) These cultures were then harvested after a 2 hour exposure to 0.25 μg/ml Colcemid (Sigma). Following a 10 minute treatment with hypotonic solution (0.075 M KCl, 5% fetal calf serum) the cells were fixed with a 3:1 mixture of methanol:acetic acid. Slides were stained with Wright's stain, and breaks and radial formation was assessed by counting the number of breaks and radials in a representative number of cells.

[2] = system: SV40-transformed OV-HR2 ovarian epithelial cells; test: MMC/DEB-induced radial formation, SV40-transformed OV-HR2 cells with and without FANCD2 complementation (FIG. 4B); details: 40 ng/ml MMC or 200 ng/mL DEB, 48 hours, 50 metaphases
Description: (§2) The ovarian cells were scraped from the ovarian surface and enzymatically disaggregated with Collagenase I (GIBCO-Invitrogen, Grand Island, N.Y.) for 4 hours. The cells were washed in RPMI 1640 medium (GIBCO-Invitrogen) and plated in 25 cm^2 flasks coated with collagen in RPMI 1640 supplemented with 20% FCS (Hyclone, Logan, Utah), 10 μg/ml insulin (Sigma, St. Louis, Mo.) and 10 ng/ml EGF (R&D Systems, Minneapolis, Minn.). Studies were performed on primary cells and immortalized cells. Ovarian cells were immortalized by transduction with a retrovirus expressing SV40 large T-antigen obtained from cell line Ψ-2/U195 (Saito et al., Mutat. Res. 294:255-62, 1993; Williams et al., Mol. Cell Bio. 8:3864-71, 1988). SV40-transformed ovarian epithelial cells were transduced with pMMP retroviral vectors containing full-length FANCD2 cDNA produced from the AM12/RVD2 cell line (Naf et al., Mol. Cell Biol. 18:5952-60, 1998; Kuang et al., Blood 96:1625-32, 2000).
as §1

[3] = system: ovarian surface epithelium (OSE) cells; test: MMC/DEB-induced chromosomal breakage and radial formation in primary ovarian epithelial cell cultures; details: 40 ng/ml MMC or 200 ng/ml DEB, 48 hours
Description: as §2, §1

[4] = system: SV40-transformed OV-CA4 ovarian epithelial cells; test: MMC/DEB-induced radial formation, SV40-transformed OV-CA4 cells with and without FANCD2 complementation (FIG. 4B); details: 40 ng/ml MMC or 200 ng/mL DEB, 48 hours, 50 metaphases
Description: as §2, §1

[5] = lymphocytes of case OV-CA 1 (carcinoma)
[6] = lymphocytes of case OV-CA 2 (carcinoma)
[7] = lymphocytes of case OV-CA 3 (carcinoma)
[8] = lymphocytes of case OV-CA 4 (carcinoma)
[9] = lymphocytes of case OV-CA 5 (carcinoma)
[10] = lymphocytes of case OV-CA 6 (carcinoma)
[11] = lymphocytes of case OV-CA 7 (carcinoma)
[12] = lymphocytes of case OV-CA 8 (carcinoma)
[13] = lymphocytes of case OV-HR 1 (high-risk)
[14] = lymphocytes of case OV-HR 2 (high-risk)
[15] = lymphocytes of case OV-HR 3 (high-risk)
[16] = lymphocytes of case OV-HR 4 L (high-risk)
[17] = lymphocytes of case OV-HR 5 L (high-risk)
[18] = lymphocytes of case OV-HR 5 R (high-risk)
[19] = lymphocytes of case OV-NL 3 (normal)
[20] = lymphocytes of case OV-NL 9 L (normal)
[21] = lymphocytes of case OV-NL 9 R (normal)
[22] = OV-HR2, FANCD2-complemented (retroviral FANCD2 cDNA)
[23] = OV-HR2, FANCD2-deficient (before FANCD2 expression)
[24] = OV-CA4, FANCD2-complemented (retroviral FANCD2 cDNA)
[25] = OV-CA4, FANCD2-deficient (before FANCD2 expression)

SMILES: C1OC1C1CO1 (stereo not shown) [DEB, Diepoxybutane]
- Radials (%) PBML MMC/DEB [1, 5]: 0%
- Radials (%) PBML MMC/DEB [1, 6]: 0%
- Radials (%) PBML MMC/DEB [1, 7]: 1/1%
- Radials (%) PBML MMC/DEB [1, 8]: 2%
- Radials (%) PBML MMC/DEB [1, 9]: 0%
- Radials (%) PBML MMC/DEB [1, 10]: 1/1%
- Radials (%) PBML MMC/DEB [1, 11]: 1%
- Radials (%) PBML MMC/DEB [1, 12]: 1%
- Radials (%) PBML MMC/DEB [1, 13]: 0/0%
- Radials (%) PBML MMC/DEB [1, 14]: 0/0%
- Radials (%) PBML MMC/DEB [1, 15]: 0%
- Radials (%) PBML MMC/DEB [1, 16]: 0/0%
- Radials (%) PBML MMC/DEB [1, 17]: 1%
- Radials (%) PBML MMC/DEB [1, 18]: 0/0%
- Radials (%) PBML MMC/DEB [1, 19]: 0/0%
- Radials (%) PBML MMC/DEB [1, 20]: 0/0%
- Radials (%) PBML MMC/DEB [1, 21]: 0/0%
- fraction of MMC- and DEB-exposed cells with radial forms [2, 22]: 10%
- fraction of MMC- and DEB-exposed cells with radial forms [2, 23]: 30%
- Radials (%) OSE MMC/DEB ([3]; case OV-CA 1 (carcinoma)): 16%
- Radials (%) OSE MMC/DEB ([3]; case OV-CA 2 (carcinoma)): 10%
- Radials (%) OSE MMC/DEB ([3]; case OV-CA 3 (carcinoma)): 14%
- Radials (%) OSE MMC/DEB ([3]; case OV-CA 4 (carcinoma)): 48%
- Radials (%) OSE MMC/DEB ([3]; case OV-CA 5 (carcinoma)): 2%
- Radials (%) OSE MMC/DEB ([3]; case OV-HR 1 (high-risk)): 14%
- Radials (%) OSE MMC/DEB ([3]; case OV-HR 2 (high-risk)): 64%
- Radials (%) OSE MMC/DEB ([3]; case OV-HR 3 (high-risk)): 55%
- Radials (%) OSE MMC/DEB ([3]; case OV-HR 4 L (high-risk)): 50%
- Radials (%) OSE MMC/DEB ([3]; case OV-HR 5 L (high-risk)): 20%
- Radials (%) OSE MMC/DEB ([3]; case OV-HR 5 R (high-risk)): 12%
- Radials (%) OSE MMC/DEB ([3]; case OV-NL 1 (normal)): 0/0%
- Radials (%) OSE MMC/DEB ([3]; case OV-NL 2 (normal)): 0/0%
- Radials (%) OSE MMC/DEB ([3]; case OV-NL 3 (normal)): 0%
- Radials (%) OSE MMC/DEB ([3]; case OV-NL 4 (normal)): 1%
- Radials (%) OSE MMC/DEB ([3]; case OV-NL 5 (normal)): 1/1%
- Radials (%) OSE MMC/DEB ([3]; case OV-NL 6 L (normal)): 0/0%
- Radials (%) OSE MMC/DEB ([3]; case OV-NL 6 R (normal)): 0/0%
- Radials (%) OSE MMC/DEB ([3]; case OV-NL 7 (normal)): 2%
- Radials (%) OSE MMC/DEB ([3]; case OV-NL 8 (normal)): 3/3%
- Radials (%) OSE MMC/DEB ([3]; case OV-NL 9 L (normal)): 0/0%
- Radials (%) OSE MMC/DEB ([3]; case OV-NL 9 R (normal)): 0/0%
- fraction of MMC- and DEB-exposed cells with radial forms [4, 24]: 20%
- fraction of MMC- and DEB-exposed cells with radial forms [4, 25]: 48%

SMILES: CO[C@@]12[C@H](COC(N)=O)C3=C(C(=O)C(C)=C(N)C3=O)N1C[C@@H]1N[C@@H]12 [MMC, Mitomycin C]
- Radials (%) PBML MMC/DEB [1, 5]: 2%
- Radials (%) PBML MMC/DEB [1, 6]: 1%
- Radials (%) PBML MMC/DEB [1, 7]: 1/1%
- Radials (%) PBML MMC/DEB [1, 8]: 4%
- Radials (%) PBML MMC/DEB [1, 9]: 2%
- Radials (%) PBML MMC/DEB [1, 10]: 1/1%
- Radials (%) PBML MMC/DEB [1, 11]: 0%
- Radials (%) PBML MMC/DEB [1, 12]: 3%
- Radials (%) PBML MMC/DEB [1, 13]: 0/0%
- Radials (%) PBML MMC/DEB [1, 14]: 0/0%
- Radials (%) PBML MMC/DEB [1, 15]: 1%
- Radials (%) PBML MMC/DEB [1, 16]: 0/0%
- Radials (%) PBML MMC/DEB [1, 17]: 0%
- Radials (%) PBML MMC/DEB [1, 18]: 0/0%
- Radials (%) PBML MMC/DEB [1, 19]: 0/0%
- Radials (%) PBML MMC/DEB ([1]; lymphocytes of case OV-NL 6 L (normal)): 0/N.D. %
- Radials (%) PBML MMC/DEB ([1]; lymphocytes of case OV-NL 6 R (normal)): 0/N.D. %
- Radials (%) PBML MMC/DEB [1, 20]: 0/0%
- Radials (%) PBML MMC/DEB [1, 21]: 0/0%
- fraction of MMC- and DEB-exposed cells with radial forms [2, 22]: 32%
- fraction of MMC- and DEB-exposed cells with radial forms [2, 23]: 60%
- Radials (%) OSE MMC/DEB ([3]; case OV-CA 1 (carcinoma)): 14%
- Radials (%) OSE MMC/DEB ([3]; case OV-CA 2 (carcinoma)): 12%
- Radials (%) OSE MMC/DEB ([3]; case OV-CA 3 (carcinoma)): 16%
- Radials (%) OSE MMC/DEB ([3]; case OV-CA 4 (carcinoma)): 70%
- Radials (%) OSE MMC/DEB ([3]; case OV-CA 5 (carcinoma)): 12%
- Radials (%) OSE MMC/DEB ([3]; case OV-CA 6 (carcinoma)): 66/N.D. %
- Radials (%) OSE MMC/DEB ([3]; case OV-CA 7 (carcinoma)): 0/N.D. %
- Radials (%) OSE MMC/DEB ([3]; case OV-CA 8 (carcinoma)): 33/N.D. %
- Radials (%) OSE MMC/DEB ([3]; case OV-HR 1 (high-risk)): 10%
- Radials (%) OSE MMC/DEB ([3]; case OV-HR 2 (high-risk)): 50%
- Radials (%) OSE MMC/DEB ([3]; case OV-HR 3 (high-risk)): 64%
- Radials (%) OSE MMC/DEB ([3]; case OV-HR 4 L (high-risk)): 66%
- Radials (%) OSE MMC/DEB ([3]; case OV-HR 5 L (high-risk)): 47%
- Radials (%) OSE MMC/DEB ([3]; case OV-HR 5 R (high-risk)): 30%
- Radials (%) OSE MMC/DEB ([3]; case OV-NL 1 (normal)): 0/0%
- Radials (%) OSE MMC/DEB ([3]; case OV-NL 2 (normal)): 0/0%
- Radials (%) OSE MMC/DEB ([3]; case OV-NL 3 (normal)): 2%
- Radials (%) OSE MMC/DEB ([3]; case OV-NL 4 (normal)): 4%
- Radials (%) OSE MMC/DEB ([3]; case OV-NL 5 (normal)): 1/1%
- Radials (%) OSE MMC/DEB ([3]; case OV-NL 6 L (normal)): 0/0%
- Radials (%) OSE MMC/DEB ([3]; case OV-NL 6 R (normal)): 0/0%
- Radials (%) OSE MMC/DEB ([3]; case OV-NL 7 (normal)): 1%
- Radials (%) OSE MMC/DEB ([3]; case OV-NL 8 (normal)): 3/3%
- Radials (%) OSE MMC/DEB ([3]; case OV-NL 9 L (normal)): 0/0%
- Radials (%) OSE MMC/DEB ([3]; case OV-NL 9 R (normal)): 0/0%
- fraction of MMC- and DEB-exposed cells with radial forms [4, 24]: 56%
- fraction of MMC- and DEB-exposed cells with radial forms [4, 25]: 70%
